Read-outs that look alike come from different tables or passages of the source.
Experiments:
[1] = Bone imaging of New Zealand rabbits (SPECT); conditions: New Zealand rabbit, 100 MBq
Description: The New Zealand rabbit was anesthetized by intraperitoneal injection of 2% pentobarbital sodium (40 mg/kg). Then, 100 MBq [^188Re]Re-IBA was injected. Bone imaging was performed at different time points (acquisition equipment: American GE Infinia T4 double probe single-photon emission computed tomography, high energy collimator; scanning parameters: energy peak: 155 keV, posture: supine position, matrix: 128 × 128, and window width: ±10%). Following image acquisition, the images were processed by using the software of the postprocessing workstation.

[2] = test system: nude mice of bone metastasis model (PC-3, MDA-MB-231, left tibia); conditions: for ROI ratio of model bone/contralateral bone (mean): bone imaging
Description: (§1) The nude mice of the bone metastasis model were established by tibial bone marrow injection. The specific methods were as follows: 25 μL of prostate cancer PC-3 and breast cancer MDA-MB-231 cell culture medium were injected into the left tibial bone marrow cavity of healthy male and female nude mice, respectively. At approximately 3-4 weeks after inoculation, they were scanned by microcomputed tomography (CT, SIEMENS InveonTM, Munich, Germany) to determine the condition of the model. […] Bone metastases were initially evaluated by CT and confirmed by pathology after the completion of related studies.
The nude mice were injected with [^18F]F-sodium fluoride (NaF), [^99mTc]Tc-methylene diphosphonate (MDP), and [^188Re]Re-IBA at the first, second, and fifth days, respectively, for bone imaging. […]/computed tomography (PET/CT) acquisition equipment was SIEMENS InveonTM. Single-photon emission computed tomography/computed tomography (SPECT/CT) acquisition equipment was GE SPECT, pinhole collimator.

[3] = test system: nude mice of bone metastasis model (PC-3, MDA-MB-231, left tibia)
Description: as §1
Ten PC-3 and ten MDA-MB-231 nude mice with bone metastasis were randomly divided into five groups. The mice were sacrificed by CO2 asphyxiation at 1 h, 3 h, 6 h, 24 h, and 48 h. The important tissue and organ samples were collected for the biodistribution study.

fresh human plasma = conditions: 37°C, 2 h
From the text: The results are expressed as mean ± standard deviation ( χ¯ ± s).

Kunming mice = test system: Kunming mice
Description: Sixteen Kunming mice were randomly divided into four groups (equal number of males and females): normal control group and low-, middle-, and high-dose [^188Re]Re-IBA groups. The control group was injected with 0.9% NaCl, and the experimental groups were injected with [^188Re]Re-IBA solution of 3.7 MBq, 18.5 MBq, and 37 MBq, respectively. The body weight and general condition of the mice in each group were measured. After 4 weeks, the blood of the mice in each group was drawn for routine blood examination and liver and kidney function. A pathological examination of important tissue and organs was performed.
SPSS 26.0 was used for statistical analysis, and the quantitative data were expressed as mean ± standard deviation ( χ¯ ± s). In the toxicity test, repeated-measures analysis of variance was used to compare the body weight of mice in each group. P < 0.05 was considered statistically significant.

CCCCCN(C)CCC1(O)P(=O)(O)[O][188Re]2([OH])([OH])([O]P1(=O)O)[O]P(=O)(O)C(O)(CCN(C)CCCCC)P(=O)(O)[O]2 (stereo not shown) [[^188Re]Re-IBA]
Elimination route of most of the activity [1]: through the kidneys
Bone imaging, tracer distribution ([1]; 20 min after the injection): obvious accumulation in bones and mild tracer uptake in soft tissue
Bone imaging, uptake in the model side vs control side ([2]; 1–3 h after injection, concentration mainly in surrounding soft tissue): higher than that of the control side
ROI ratio of model bone/contralateral bone (mean) ([2]; 6 h): 1.245
ROI ratio of model bone/contralateral bone (mean) ([2]; 16 h): 1.633
ROI ratio of model bone/contralateral bone (mean) ([2]; 32 h): 1.529
%ID/g Blood ([3]; 1 h): 1.704 ± 0.348 %ID/g
%ID/g Brain ([3]; 1 h): 0.098 ± 0.046 %ID/g
%ID/g CB (contralateral bone) ([3]; 1 h): 9.331 ± 0.541 %ID/g
%ID/g CS (contralateral muscle) ([3]; 1 h): 0.578 ± 0.043 %ID/g
%ID/g Gonad ([3]; 1 h): 0.439 ± 0.162 %ID/g
%ID/g Heart ([3]; 1 h): 0.595 ± 0.099 %ID/g
%ID/g Kidney ([3]; 1 h): 6.004 ± 0.523 %ID/g
%ID/g Liver ([3]; 1 h): 1.236 ± 0.219 %ID/g
%ID/g Lung ([3]; 1 h): 1.135 ± 0.209 %ID/g
%ID/g MB (model bone) ([3]; 1 h): 8.329 ± 0.329 %ID/g
%ID/g Small intestine ([3]; 1 h): 0.718 ± 0.073 %ID/g
%ID/g Spleen ([3]; 1 h): 0.530 ± 0.124 %ID/g
%ID/g Stomach ([3]; 1 h): 3.056 ± 0.321 %ID/g
%ID/g Thyroid gland ([3]; 1 h): 0.625 ± 0.309 %ID/g
CB/CS ratio ([3]; 1 h): 16.144
CB/heart ratio ([3]; 1 h): 15.682
CB/liver ratio ([3]; 1 h): 7.549
MB/CB ratio ([3]; 1 h): 0.893
MB/CS ratio ([3]; 1 h): 14.411
MB/heart ratio ([3]; 1 h): 14.003
MB/liver ratio ([3]; 1 h): 6.738
%ID/g Blood ([3]; 3 h): 0.531 ± 0.092 %ID/g
%ID/g Brain ([3]; 3 h): 0.082 ± 0.017 %ID/g
%ID/g CB (contralateral bone) ([3]; 3 h): 7.717 ± 4.349 %ID/g
%ID/g CS (contralateral muscle) ([3]; 3 h): 0.524 ± 0.172 %ID/g
%ID/g Gonad ([3]; 3 h): 0.231 ± 0.068 %ID/g
%ID/g Heart ([3]; 3 h): 0.326 ± 0.175 %ID/g
%ID/g Kidney ([3]; 3 h): 2.591 ± 1.120 %ID/g
%ID/g Liver ([3]; 3 h): 0.431 ± 0.312 %ID/g
%ID/g Lung ([3]; 3 h): 0.298 ± 0.250 %ID/g
%ID/g MB (model bone) ([3]; 3 h): 5.922 ± 2.126 %ID/g
%ID/g Small intestine ([3]; 3 h): 0.404 ± 0.047 %ID/g
%ID/g Spleen ([3]; 3 h): 0.227 ± 0.141 %ID/g
%ID/g Stomach ([3]; 3 h): 2.064 ± 0.207 %ID/g
%ID/g Thyroid gland ([3]; 3 h): 0.282 ± 0.149 %ID/g
CB/CS ratio ([3]; 3 h): 14.731
CB/heart ratio ([3]; 3 h): 23.637
CB/liver ratio ([3]; 3 h): 17.896
MB/CB ratio ([3]; 3 h): 0.767
MB/CS ratio ([3]; 3 h): 11.305
MB/heart ratio ([3]; 3 h): 18.139
MB/liver ratio ([3]; 3 h): 13.734
%ID/g Blood ([3]; 6 h): 0.302 ± 0.092 %ID/g
%ID/g Brain ([3]; 6 h): 0.042 ± 0.042 %ID/g
%ID/g CB (contralateral bone) ([3]; 6 h): 7.662 ± 2.934 %ID/g
%ID/g CS (contralateral muscle) ([3]; 6 h): 0.153 ± 0.083 %ID/g
%ID/g Gonad ([3]; 6 h): 0.106 ± 0.022 %ID/g
%ID/g Heart ([3]; 6 h): 0.183 ± 0.097 %ID/g
%ID/g Kidney ([3]; 6 h): 2.587 ± 0.126 %ID/g
%ID/g Liver ([3]; 6 h): 0.368 ± 0.054 %ID/g
%ID/g Lung ([3]; 6 h): 0.257 ± 0.030 %ID/g
%ID/g MB (model bone) ([3]; 6 h): 8.417 ± 1.820 %ID/g
%ID/g Small intestine ([3]; 6 h): 0.242 ± 0.118 %ID/g
%ID/g Spleen ([3]; 6 h): 0.176 ± 0.029 %ID/g
%ID/g Stomach ([3]; 6 h): 1.176 ± 0.190 %ID/g
%ID/g Thyroid gland ([3]; 6 h): 0.354 ± 0.217 %ID/g
CB/CS ratio ([3]; 6 h): 50.044
CB/heart ratio ([3]; 6 h): 41.876
CB/liver ratio ([3]; 6 h): 20.818
MB/CB ratio ([3]; 6 h): 1.099
MB/CS ratio ([3]; 6 h): 54.970
MB/heart ratio ([3]; 6 h): 45.999
MB/liver ratio ([3]; 6 h): 22.867
%ID/g Blood ([3]; 24 h): 0.045 ± 0.020 %ID/g
%ID/g Brain ([3]; 24 h): 0.037 ± 0.020 %ID/g
%ID/g CB (contralateral bone) ([3]; 24 h): 4.413 ± 2.225 %ID/g
%ID/g CS (contralateral muscle) ([3]; 24 h): 0.081 ± 0.050 %ID/g
%ID/g Gonad ([3]; 24 h): 0.069 ± 0.018 %ID/g
%ID/g Heart ([3]; 24 h): 0.052 ± 0.027 %ID/g
%ID/g Kidney ([3]; 24 h): 0.640 ± 0.175 %ID/g
%ID/g Liver ([3]; 24 h): 0.089 ± 0.027 %ID/g
%ID/g Lung ([3]; 24 h): 0.101 ± 0.038 %ID/g
%ID/g MB (model bone) ([3]; 24 h): 6.403 ± 0.247 %ID/g
%ID/g Small intestine ([3]; 24 h): 0.049 ± 0.003 %ID/g
%ID/g Spleen ([3]; 24 h): 0.066 ± 0.024 %ID/g
%ID/g Stomach ([3]; 24 h): 0.192 ± 0.092 %ID/g
%ID/g Thyroid gland ([3]; 24 h): 0.082 ± 0.030 %ID/g
CB/CS ratio ([3]; 24 h): 54.620
CB/heart ratio ([3]; 24 h): 85.157
CB/liver ratio ([3]; 24 h): 49.848
MB/CB ratio ([3]; 24 h): 1.451
MB/CS ratio ([3]; 24 h): 79.255
MB/heart ratio ([3]; 24 h): 123.563
MB/liver ratio ([3]; 24 h): 72.330
%ID/g Blood ([3]; 48 h): 0.021 ± 0.008 %ID/g
%ID/g Brain ([3]; 48 h): 0.021 ± 0.009 %ID/g
%ID/g CB (contralateral bone) ([3]; 48 h): 4.737 ± 0.863 %ID/g
%ID/g CS (contralateral muscle) ([3]; 48 h): 0.041 ± 0.022 %ID/g
%ID/g Gonad ([3]; 48 h): 0.028 ± 0.001 %ID/g
%ID/g Heart ([3]; 48 h): 0.035 ± 0.013 %ID/g
%ID/g Kidney ([3]; 48 h): 0.121 ± 0.034 %ID/g
%ID/g Liver ([3]; 48 h): 0.044 ± 0.013 %ID/g
%ID/g Lung ([3]; 48 h): 0.047 ± 0.005 %ID/g
%ID/g MB (model bone) ([3]; 48 h): 6.503 ± 0.010 %ID/g
%ID/g Small intestine ([3]; 48 h): 0.030 ± 0.018 %ID/g
%ID/g Spleen ([3]; 48 h): 0.022 ± 0.013 %ID/g
%ID/g Stomach ([3]; 48 h): 0.027 ± 0.019 %ID/g
%ID/g Thyroid gland ([3]; 48 h): 0.020 ± 0.010 %ID/g
CB/CS ratio ([3]; 48 h): 115.161
CB/heart ratio ([3]; 48 h): 133.599
CB/liver ratio ([3]; 48 h): 106.617
MB/CB ratio ([3]; 48 h): 1.373
MB/CS ratio ([3]; 48 h): 158.088
MB/heart ratio ([3]; 48 h): 183.399
MB/liver ratio ([3]; 48 h): 146.359
PPB (plasma protein binding rate) (fresh human plasma): 79.8 ± 0.71%
Pathology of important tissues and organs vs normal control (Kunming mice; 3.7, 18.5, 37 MBq, 4 weeks): no abnormal pathological changes
Routine blood and liver and kidney function examination (mean values) (Kunming mice; 3.7, 18.5, 37 MBq, 4 weeks): within the normal reference range
Adverse reactions (Kunming mice; 3.7, 18.5, 37 MBq, within 4 weeks): no adverse reactions
Body weight vs other groups (Kunming mice; high-dose group 37 MBq, 4 weeks): inhibited the weight gain of mice to a certain extent
Body weight vs control group (Kunming mice; low-dose group 3.7 MBq, 4 weeks): no significant difference in weight
Body weight vs control group (Kunming mice; medium-dose group 18.5 MBq, 4 weeks): no significant difference in weight

Source: PMC8896928, “Preparation, Characterization, and Preliminary Imaging Study of [^188Re]Re-Ibandronate as a Novel Theranostic Radiopharmaceutical for Bone Metastasis” (Contrast Media & Molecular Imaging, 2022)
